These compounds were tested on NCI-H358 (KRAS^G12C mutation) cell (assay: Cell assay of antiproliferative activity against NCI-H358 cell (Celltiter-Glo, 5 days)). Settings: 5 days incubation.
Type: cell-based
Description: Cell Assay of Antiproliferative Activity of Compounds Against NCI-H358 (KRAS^G12C Mutation) Cell.
40 μL phosphate buffer was added to the outer wells of the 384 microplate, and 40 μL cell suspension to be tested was added to the other wells. Then the microplate was incubated in a carbon dioxide incubator overnight.
The compounds to be tested were gradiently diluted, each compound was performed 10 concentration gradients (diluted from 50 μM to 0.003 μM) and added 100 nL to the corresponding wells in the microplate. After addition, 40 μl of phosphate buffer was added to each well in rows A and P and columns 1 and 24, and then the microplate was incubated in a carbon dioxide incubator for 5 days.
20 μL of Promega Celltiter-Glo reagent was added to each well of the microplate, and then the luminescence signal was stabilized by oscillating at room temperature for 10 min. Then PekinElmer Envision multi-label analyzer was used to read.
Finally, GraphPad Prism software was used to calculate the IC50 value of the compound and the fitting curve was drawn.
Anti-proliferative activity of the compounds of the present invention against NCI-H358 (KRAS^G12C mutation) cell was shown in Table 1.
Work on C=CC(=O)N1CCN(c2nc(=O)n(-c3c(CC)cccc3S(C)(=O)=O)c3nc(-c4c(O)cccc4F)c(F)cc23)[C@@H](C)C1 (single isomer, unassigned) [Example 5B] yielded an IC50 of 11 nM. With C=CC(=O)N1CCN(c2nc(=O)n(-c3c(C4CC4)cccc3S(C)(=O)=O)c3nc(-c4c(O)cccc4F)c(F)cc23)[C@@H](C)C1 (single isomer, unassigned) [Example 6A] the IC50 was 200 nM. C=CC(=O)N1CCN(c2nc(=O)n(-c3c(C4CC4)cccc3S(C)(=O)=O)c3nc(-c4c(O)cccc4F)c(F)cc23)[C@@H](C)C1 (single isomer, unassigned) [Example 6B] showed an IC50 of 15 nM. C=CC(=O)N1CCN(c2nc(=O)n(-c3c(C(C)C)cccc3S(C)(=O)=O)c3nc(-c4c(O)cccc4F)c(F)cc23)[C@@H](C)C1 (single isomer, unassigned) [Example 10A] showed an IC50 of 280 nM. For C=CC(=O)N1CCN(c2nc(=O)n(-c3c(C(C)C)ccnc3S(C)(=O)=O)c3nc(-c4c(O)cccc4F)c(F)cc23)[C@@H](C)C1 (single isomer, unassigned) [Example 16A], the IC50 was 720 nM. Compound C=CC(=O)N1CCN(c2nc(=O)n(-c3c(S(C)(=O)=O)ccnc3C(C)C)c3nc(-c4c(O)cccc4F)c(F)cc23)[C@@H](C)C1 (single isomer, unassigned) [Example 18B] has an IC50 of 460 nM. With C=CC(=O)N1CCN(c2nc(=O)n(-c3c(C(C)C)ccnc3S(C)(=O)=O)c3nc(-c4ccccc4Cl)c(F)cc23)[C@@H](C)C1 (single isomer, unassigned) [Example 20A] the IC50 was 1500 nM. C=CC(=O)N1CCN(c2nc(=O)n(-c3c(C(C)C)ccnc3S(C)(=O)=O)c3nc(-c4ccccc4Cl)c(F)cc23)[C@@H](C)C1 (single isomer, unassigned) [Example 20B] gave an IC50 of 13 nM. In the case of C=CC(=O)N1CCN(c2nc(=O)n(-c3c(C4CCC4)cccc3S(C)(=O)=O)c3nc(-c4c(O)cccc4F)c(F)cc23)[C@@H](C)C1 (single isomer, unassigned) [Example 25A], the IC50 is reported as 350 nM. Work on C=CC(=O)N1CCN(c2nc(=O)n(-c3c(C4CCC4)cccc3S(C)(=O)=O)c3nc(-c4c(O)cccc4F)c(F)cc23)[C@@H](C)C1 (single isomer, unassigned) [Example 25B] yielded an IC50 of 6 nM. For C=CC(=O)N1CCN(c2nc(=O)n(-c3c(C(C)C)cccc3S(C)(=O)=O)c3nc(-c4ccccc4Cl)c(F)cc23)[C@@H](C)C1 (single isomer, unassigned) [Example 30A], the IC50 was 740 nM. Compound C=CC(=O)N1CCN(c2nc(=O)n(-c3c(C(C)C)cccc3S(C)(=O)=O)c3nc(-c4ccccc4Cl)c(F)cc23)[C@@H](C)C1 (single isomer, unassigned) [Example 30B] has an IC50 of 11 nM. C=CC(=O)N1CCN(c2nc(=O)n(-c3c(C(C)C)cccc3S(C)(=O)=O)c3nc(-c4c(F)cccc4OC(C)=O)c(F)cc23)[C@@H](C)C1 (single isomer, unassigned) [Example 31A] was tested, and the IC50 was 300 nM. C=CC(=O)N1CCN(c2nc(=O)n(-c3c(C(C)C)cccc3S(C)(=O)=O)c3nc(-c4c(F)cccc4OC(C)=O)c(F)cc23)[C@@H](C)C1 (single isomer, unassigned) [Example 31B] gave an IC50 of 6 nM. In the case of C=CC(=O)N1CCN(c2nc(=O)n(-c3c(C)cccc3S(C)(=O)=O)c3nc(-c4c(O)cccc4F)c(F)cc23)[C@@H](C)C1 (single isomer, unassigned) [Example 53B], the IC50 is reported as 66 nM. For C=CC(=O)N1C[C@H](C)N(c2nc(=O)n(-c3c(C4CC4)cccc3S(C)(=O)=O)c3nc(-c4c(O)cccc4F)c(F)cc23)C[C@H]1C (single isomer, unassigned) [Example 81B], the IC50 was 9 nM. C=CC(=O)N1C[C@H](C)N(c2nc(=O)n(-c3c(CC)cccc3S(=O)(=O)C(C)C)c3nc(-c4c(O)cccc4F)c(F)cc23)C[C@H]1C (single isomer, unassigned) [Example 82B] was tested, and the IC50 was 50 nM. In the case of C=CC(=O)N1CCN(c2nc(=O)n(-c3c(CC)cccc3S(=O)(=O)C(C)C)c3nc(-c4c(O)cccc4F)c(F)cc23)[C@@H](C)C1 (single isomer, unassigned) [Example 83B], the IC50 is reported as 26 nM. Compound C=CC(=O)N1C[C@H](C)N(c2nc(=O)n(-c3c(CC)cccc3S(C)(=O)=O)c3nc(-c4c(O)cccc4F)c(Cl)cc23)C[C@H]1C (single isomer, unassigned) [Example 84B] has an IC50 of 6 nM. With C=CC(=O)N1CCN(c2nc(=O)n(-c3c(C)cccc3S(C)(=O)=O)c3nc(-c4c(O)cccc4F)c(F)cc23)[C@@H](C)C1 (single isomer, unassigned) [Example 87A] the IC50 was under 30 nM. Compound C=CC(=O)N1CCN(c2nc(=O)n(-c3c(C)cccc3S(C)(=O)=O)c3nc(-c4c(O)cccc4F)c(F)cc23)[C@@H](C)C1 (single isomer, unassigned) [Example 87B] has an IC50 of under 100 nM. For C=CC(=O)N1CCN(c2nc(=O)n(-c3c(CC)cccc3S(C)(=O)=O)c3nc(-c4c(O)cccc4F)c(F)cc23)[C@@H](C)C1 [Example 5, 4-((S)-4-acrylo-2-methylpiperazin-1-yl)-1-(2-ethyl-6-(methylsulfonyl)phenyl)-6-fluoro-7-(2-fluoro-6-hydroxyphenyl) pyridino[2,3-d] pyrimidin-2(1H)-one], the IC50 was 28 nM. C=CC(=O)N1CCN(c2nc(=O)n(-c3c(CC)cccc3S(C)(=O)=O)c3nc(-c4c(O)cccc4F)c(F)cc23)[C@@H](C)C1 [Example 5A] showed an IC50 of 230 nM.

Same assay, conditions: Homo sapiens, NCI-H358, 120 h, 5 days incubation
Work on C=CC(=O)N1CCN(c2nc(=O)n(-c3c(C)ccnc3S(C)(=O)=O)c3nc(-c4c(O)cccc4F)c(F)cc23)[C@@H](C)C1 [Example 1, 4-((S)-4-acryloyl-2-methylpiperazin-1-yl)-6-fluoro-7-(2-fluoro-6-hydroxyphenyl)-1-(4-methyl-2-(methylsulfonyl)pyridin-3-yl) pyridino [2,3-d] pyrimidin-2 (1H)-one] yielded an IC50 of 90 nM. For C=CC(=O)N1CCN(c2nc(=O)n(-c3c(S(C)(=O)=O)ccnc3C)c3nc(-c4c(O)cccc4F)c(F)cc23)[C@@H](C)C1 [Example 2, 4-((S)-4-acryloyl-2-methylpiperazin-1-yl)-6-fluoro-7-(2-fluoro-6-hydroxyphenyl)-1-(2-methyl-4-(methylsulfonyl)pyridin-3-yl) pyridino [2,3-d] pyrimidin-2 (1H)-one], the IC50 was 540 nM. With C=CC(=O)N1CCN(c2nc(=O)n(-c3c(C)cccc3S(C)(=O)=O)c3nc(-c4c(O)cccc4F)c(F)cc23)[C@@H](CC#N)C1 [Example 3, 2-((2S)-4-acryloyl-1-(6-fluoro-7-(2-fluoro-6-hydroxyphenyl)-1-(2-methyl-6-(methylsulfonyl)phenyl)-2-oxo-1,2-dihydropyridino[2,3-d]pyrimidin-4-yl)piperazin-2-yl) acetonitrile] the IC50 was 870 nM. In the case of C=CC(=O)N1CCN(c2nc(=O)n(-c3c(C)cccc3S(=O)(=O)C(C)C)c3nc(-c4c(O)cccc4F)c(F)cc23)[C@@H](C)C1 [Example 4, 4-((S)-4-acryloyl-2-methylpiperazin-1-yl)-6-fluoro-7-(2-fluoro-6-hydroxyphenyl)-1-(2-(isopropylsulfonyl)-6-methylphenyl) pyridino[2,3-d] pyrimidin-2(1H)-one], the IC50 is reported as 420 nM. Work on C=CC(=O)N1CCN(c2nc(=O)n(-c3c(C4CC4)cccc3S(C)(=O)=O)c3nc(-c4c(O)cccc4F)c(F)cc23)[C@@H](C)C1 [Example 6, 4-((S)-4-acryloyl-2-methylpiperazin-1-yl)-1-(2-cyclopropyl-6-(methylsulfonyl)phenyl)-6-fluoro-7-(2-fluoro-6-hydroxyphenyl) pyridino [2,3-d] pyrimidin-2(1H)-one] yielded an IC50 of 28 nM.
